Results: ChEMBL document CHEMBL4145482, “Discovery of novel HSP90 inhibitors that induced apoptosis and impaired autophagic flux in A549 lung cancer cells” (Eur J Med Chem, 2018)
The source made the active and inactive calls. No cut-off for these calls is given here.

Tests used:
[1] = tested on: A549; experiment: Inhibition of autophagic flux in human A549 cells assessed as increase in LC3-2 protein level at 10 uM after 24 hrs by Western blot analysis; assay type: functional, cell-based
[2] = tested on: A549; experiment: Induction of necrosis in human A549 cells at 10 to 20 uM after 48 hrs by LDH release assay; assay type: functional, cell-based
[3] = tested on: A549; experiment: Inhibition of autophagic flux in human A549 cells assessed as increase in LC3-2 protein level at 10 uM after 24 hrs in presence of V-ATPase inhibitor bafilomycin-A1 by Western blot analysis; assay type: functional, cell-based
[4] = tested on: A549; experiment: Inhibition of autophagic flux in human A549 cells assessed as increase in p62 protein level at 10 uM after 24 hrs in presence of V-ATPase inhibitor bafilomycin-A1 by Western blot analysis; assay type: functional, cell-based
[5] = tested on: A549; experiment: Induction of apoptosis in human A549 cells assessed as DNA fragmentation at 10 uM after 6 to 24 hrs by Hoechst 33258 staining based fluorescence microscopic method; assay type: functional, cell-based
[6] = tested on: A549; experiment: Inhibition of autophagic flux in human A549 cells assessed as increase in p62 protein level at 10 uM after 24 hrs by Western blot analysis; assay type: functional, cell-based
[7] = tested on: A549; experiment: Induction of apoptosis in human A549 cells assessed as chromatin condensation at 10 uM after 6 to 24 hrs by Hoechst 33258 staining based fluorescence microscopic method; assay type: functional, cell-based
[8] = molecular target: T1, Heat shock protein HSP90 (Homo sapiens) (UniProt P07900+P08238); experiment: Inhibition of anti-HSP90 antibody binding to HSP90 in human A549 cells preincubated for 1 hr followed by antibody addition by Western blot analysis; assay type: cell-based
[9] = tested on: A549; experiment: Growth inhibition of human A549 cells after 48 hrs by SRB assay; assay type: functional, cell-based; conditions: for IC50: A549, 48 h
[10] = tested on: HUVEC; experiment: Cytotoxicity against HUVEC assessed as reduction in cell viability after 48 hrs by SRB assay; assay type: cell-based; conditions: human
[11] = tested on: A549; experiment: Effect on HSP90 protein expression in human A549 cells at 10 uM up to 48 hrs by Western blot analysis; assay type: cell-based; conditions: a549, 48 h
[12] = tested on: A549; experiment: Upregulation of HSP70 protein expression in human A549 cells at 10 uM up to 48 hrs by Western blot analysis; assay type: cell-based; conditions: a549, 48 h
[13] = molecular target: T1, Heat shock protein HSP90 (Homo sapiens); experiment: Inhibition of HSP90 in human A549 cells assessed as reduction in AKT protein expression at 10 uM up to 48 hrs by Western blot analysis; assay type: cell-based
[14] = molecular target: T1, Heat shock protein HSP90 (Homo sapiens); experiment: Inhibition of HSP90 in human A549 cells assessed as reduction in NFkB p65 protein expression at 10 uM up to 48 hrs by Western blot analysis; assay type: cell-based
[15] = tested on: A549; experiment: Growth inhibition of human A549 cells up to 20 uM up to 48 hrs by SRB assay; assay type: functional, cell-based

Row | Compound | Activity [1] | Activity [2] | Activity [3] | Activity [4] | Activity [5] | Activity [6] | Activity [7] | inhibition [8] | growth inhibition (GI) [9] | IC50 [9] [µM] | Activity [10] | Activity [11] | Activity [12] | inhibition [13] | inhibition [14] | growth inhibition (GI) [15]
1 | COc1ccc(C2CC(c3cc4ccc(O)cc4oc3=O)=NN2c2ccc(Br)cc2)cc1 (stereo unspecified) | Active | inactive | inactive | inactive | Active | Active | Active | Dose-dependent effect | Dose-dependent effect | 6.5 | – | – | – | – | – | –
2 | COc1ccc(C2CC(c3cc4ccc(O)cc4oc3=O)=NN2c2ccc(F)cc2)cc1 (stereo unspecified) | Active | inactive | inactive | inactive | Active | Active | Active | Dose-dependent effect | Dose-dependent effect | 7.1 | – | – | – | – | – | –
3 | O=c1oc2cc(O)ccc2cc1C1=NN(c2ccc(F)cc2)C(c2ccccc2)C1 (stereo unspecified) | Active | inactive | inactive | inactive | Active | Active | Active | Dose-dependent effect | Dose-dependent effect | 7.2 | – | – | – | – | – | –
4 | COc1ccc(C2CC(c3cc4ccc(O)cc4oc3=O)=NN2c2ccc(Cl)cc2)cc1 (stereo unspecified) | Active | inactive | inactive | inactive | Active | Active | Active | Dose-dependent effect | Dose-dependent effect | 9.6 | – | – | – | – | – | –
5 | O=c1oc2cc(O)ccc2cc1C1=NN(c2ccccc2)C(c2ccccc2)C1 (stereo unspecified) | Active | inactive | inactive | inactive | Active | Active | Active | Dose-dependent effect | Dose-dependent effect | 4.7 | Non-Toxic | Non-Toxic | Non-Toxic | Active | Active | –
6 | O=c1[nH]cc(F)c(=O)[nH]1 | – | – | – | – | – | – | – | – | – | – | – | – | – | – | – | inactive
7 | COc1ccc(C2CC(c3cc4ccc(O)cc4oc3=O)=NN2c2ccccc2)cc1 (stereo unspecified) | Active | inactive | inactive | inactive | Active | Active | Active | Dose-dependent effect | Dose-dependent effect | 6.3 | – | – | – | – | – | –
